Measurements published in US6686381B2, “Thiazole derivatives” (Hoffmann-La Roche Inc., priority 2002, dated 2004).

Target: T1, mouse NPY5-receptor (mNPY5) (Mus musculus, UniProt O70342)
T1 construct: The full-length cDNA encoding the mouse NPY5 (mNPY5) receptor was amplified from mouse brain cDNA; expressed in transfected cells; membranes used
T1 sequence (O70342 1-466): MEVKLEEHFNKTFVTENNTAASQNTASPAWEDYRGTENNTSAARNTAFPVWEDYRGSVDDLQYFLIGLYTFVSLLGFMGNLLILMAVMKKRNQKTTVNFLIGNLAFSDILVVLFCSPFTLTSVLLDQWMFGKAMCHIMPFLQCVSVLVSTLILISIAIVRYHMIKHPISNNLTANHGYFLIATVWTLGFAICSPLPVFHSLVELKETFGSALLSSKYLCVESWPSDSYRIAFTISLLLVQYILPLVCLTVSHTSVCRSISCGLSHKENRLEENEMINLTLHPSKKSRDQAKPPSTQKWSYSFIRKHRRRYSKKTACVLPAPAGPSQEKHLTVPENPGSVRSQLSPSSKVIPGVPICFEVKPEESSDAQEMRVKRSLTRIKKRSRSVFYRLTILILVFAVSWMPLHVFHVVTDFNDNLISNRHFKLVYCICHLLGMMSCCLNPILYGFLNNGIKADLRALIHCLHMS
Experiment: Radioligand competition binding
Conditions: membranes of HEK293 cells expressing recombinant mNPY5; 100 pM [125I]labelled peptide YY; 1 h at 22° C.
Excerpt: Cloning of Mouse NPY5 Receptor cDNAs:
The full-length cDNA encoding the mouse NPY5 (mNPY5) receptor was amplified from mouse brain cDNA using specific primers, designed based on the published sequence, and Pfu DNA-Polymerase. The amplification product was subcloned into the mammalian expression vector pcDNA3 using EcoRI and XhoI restriction sites. Positive clones were sequenced and one clone, encoding the published sequence (see Borowsky, B., et al., Molecular biology and pharmacology of multiple NPY Y5 receptor species homologs, Regul. Pept. (1998) 75-76:45-53) was selected for generation of stable cell clones.
Human embryonic kidney 293 (HEK293) cells were transfected with 10 μg mNPY5 DNA using the lipofectamine reagent (Gibco BRL) according to the manufacturer's instruction. Two days after transfection, geneticin selection (1 mg/ml) was initiated and several stable clones were isolated. One clone was further used for pharmacological characterization.
Radioligand Competition Binding:
Human embryonic kidney 293 cells (HEK293), expressing recombinant mouse NPY5-receptor (mNPY5) were broken by three freeze/thawing cycles in hypotonic Tris buffer (5 mM, pH 7.4, 1 mM MgCl2), homogenized and centrifuged at 72,000×g for 15 min. […] Protein was determined according to the method of Lowry using bovine serum albumine (BSA) as a standard. […]

Row | IC50 [nM] | SMILES
1 | 5.4 | O=C(c1ccccn1)c1cnc(NCCCNS(=O)(=O)c2ccccc2F)s1 [Example 1, 2-Fluoro-N-{3-[5-(pyridine-2-carbonyl)-thiazol-2-ylamino]-propyl}-benzenesulfonamide]
2 | 6 | COc1ccc(C)cc1S(=O)(=O)NCCCNc1nc(C(=O)c2ccccc2C)cs1 [Example 140, 2-Methoxy-5-methyl-N-{3-[4-(2-methyl-benzoyl)-thiazol-2-ylamino]-propyl}-benzenesulfonamide]
